Experimental data published in patent publication US8362236B2, “Macrocyclic compound” (Chugai Seiyaku Kabushiki Kaisha, priority 2007, dated 2013).

Experiments:
[1] = system: HCT116 cells; assay: Measurement of cell growth inhibition (Cell Counting Kit-8, four days); details: Homo sapiens, HCT-116, 96 h, read-out: Cell growth-inhibiting activity (IC50, μM) Colon cancer HCT116, HCT116 colon cancer cell line, four days culture;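 note: cells exposed to a range of test concentrations at 37 °C in 5% CO2 for four days, then growth read as absorbance with Cell Counting Kit-8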
Experimental: Cells were maintained under conditions recommended by the provider of each cell line. Cells suspended in a medium were added to solutions containing various concentrations of the test substance, and the cells were cultured at 37° C. in a 5% CO2 incubator. Four days later, Cell Counting Kit-8 was added, and absorbance measurements were taken following the protocol included in the kit.

[2] = molecular target: T1, Human HSP90 alpha (Homo sapiens, UniProt P07900); assay: Assay for the activity of inhibiting HSP90 enzyme (ATPase, malachite green); type: biochemical; details: purified human HSP90 alpha, 1 mM ATP added, 37° C. for two hours, OD655; read-out: Enzyme-inhibiting activity (IC50, μM) Human HSP90α
T1 construct: His tag (inferred from purification on a HisPrep FF column); made in house; host or cells: E. coli BL21 codon plus (Stratagene)
Experimental: Introduction of pETHuHSP90a into E. coli (BL21 codon plus; Stratagene) was followed by O/N incubation in the presence of 0.1 mM IPTG, and the collected E. coli cells were disrupted by ultrasonication in a Lysis buffer (50 mM Tris-HCl (pH8.0), 10 mM MgCl2, 0.1% Triton X-100, Protease inhibitor cocktail tablets (Roche Diagnostics)). The cell lysate solution was centrifuged (10,000 rpm×30 minutes), and the supernatant obtained after centrifugation was used as a crude extract. The crude extract was fractionated using HisPrep FF column and HiTrap Q column (Amersham) to prepare a purified enzyme solution.
An enzyme solution for assays was prepared by dilution of the purified enzyme solution using an assay buffer (50 mM Tris HCl pH7.6, 20 mM KCl, 5 mM MgCl2).
10 μL each of various concentrations of the test substances (10% DMSO solution) was added to each well, and for the positive control wells, 10 μL of 10% DMSO was added. 10 μL of 10% DMSO was also added to the negative control well.
10 μL of 1 mM ATP was added to all of the wells, and the reaction was carried out at 37° C. for two hours.

What does the source list for Cc1cc(C)c2cc1C(=O)N(C)CCCNC(=O)CCSc1cc-2nc(N)n1 [Compound 3, 4-amino-15,18,20-trimethyl-7-thia-3,5,11,15-tetraazatricyclo[15.3.1.1^2,6]docosa-1(20),2(22),3,5,17(21),18-hexane-10,16-dione]?
IC50 [1]: 0.92 µM; IC50 [2]: 1.6 µM

How did the IC50 [2] turn out when Cc1cc(C)c2cc1C(=O)NCCNC(=O)CCCSc1cc-2nc(N)n1 [Compound 4, 4-amino-18,20-dimethyl-7-thia-3,5,12,15-tetraazatricyclo[15.3.1.1^2,6]docosa-1(20),2(22),3,5,17(21),18-hexaene-11,16-dione] was run?
Its IC50 is 1 µM.

What does the source list for Cc1cc(C)c2cc1C(=O)NCCCCNC(=O)CCCSc1cc-2nc(N)n1 [Compound 5, 4-amino-20,22-dimethyl-7-thia-3,5,12,17-tetraazatricyclo[17.3.1.1^2,6]tetracosa-1(22),2(24),3,5,19(23),20-hexane-11,18-dione]?
IC50 [1]: 0.5 µM; IC50 [2]: 1 µM

Cc1cc(C)c2cc1C(=O)NCCCCCNC(=O)C(C)CSc1cc-2nc(N)n1 (centres unmarked) [Compound 7, 4-amino-9,20,22-trimethyl-7-thia-3,5,11,17-tetraazatricyclo[17.3.1.1^2,6]tetracosa-1(22),2(24),3,5,19(23),20-hexaene-10,18-dione] was tested. Which IC50 [1] did it give?
The IC50 was 0.4 µM.

What about the IC50 [2] of the same compound?
The IC50 was 1.6 µM.

Which results are given for Nc1nc2cc(n1)-c1cc(c(Cl)cc1Cl)C(=O)NCCCNC(=O)CCS2 [Compound 8, 4-amino-18,20-dichloro-7-thia-3,5,11,15-tetraazatricyclo[15.3.1.1^2,6]docosa-1(20),2(22),3,5,17(21),18-hexaene-10,16-dione]?
IC50 [1]: 0.21 µM; IC50 [2]: 2 µM

How did the IC50 [1] turn out when COc1cc(C)c2cc1C(=O)NCCCC(=O)NCCSc1cc-2nc(N)n1 [Compound 9, 4-amino-18-methoxy-20-methyl-7-thia-3,5,10,15-tetraazatricyclo[15.3.1.1^2,6]docosa-1(20),2(22),3,5,17(21),18-hexaene-11,16-dione] was run?
The IC50 was greater than 10 µM.

And the IC50 [2]?
Its IC50 is 1.9 µM.

What does the source list for COc1cc(C)c2cc1C(=O)N(C)CCCC(=O)NCCSc1cc-2nc(N)n1 [Compound 10, 4-amino-18-methoxy-15,20-dimethyl-7-thia-3,5,10,15-tetraazatricyclo[15.3.1.1^2,6]docosa-1(20),2(22),3,5,17(21),18-hexaene-11,16-dione]?
IC50 [1]: > 10 µM; IC50 [2]: 1.1 µM

Cc1cc(C)c2cc1C(=O)NCCCC(=O)NCCSc1cc-2nc(N)n1 [Compound 11, 4-amino-18,20-dimethyl-7-thia-3,5,10,15-tetraazatricyclo[15.3.1.1^2,6]docosa-1(20),2(22),3,5,17(21),18-hexaene-11,16-dione] was tested. Which IC50 [2] did it give?
Its IC50 is 1.2 µM.

Which IC50 [1] does the source give for Cc1cc(C)c2cc1C(=O)NCCC(=O)NCCSc1cc-2nc(N)n1 [Compound 12, 4-amino-17,19-dimethyl-7-thia-3,5,10,14-tetraazatricyclo[14.3.1.1^2,6]henicosa-1(19),2(21),3,5,16(20),17-hexaene-11,15-dione] here?
Its IC50 is 0.72 µM.

What about the IC50 [2] of the same compound?
The IC50 was 1.3 µM.

Cc1cc(C)c2cc1C(=O)N(C)CCCC(=O)NCCSc1cc-2nc(N)n1 [Compound 13, 4-amino-15,18,20-trimethyl-7-thia-3,5,10,15-tetraazatricyclo[15.3.1.1^2,6]docosa-1(20),2(22),3,5,17(21),18-hexaene-11,16-dione] was tested. Which IC50 [1] did it give?
The IC50 was 4.4 µM.

What about the IC50 [2] of the same compound?
Its IC50 is 1.2 µM.

For Cc1cc(C)c2cc1C(=O)NCCCCCC(=O)NCCSc1cc-2nc(N)n1 [Compound 14, 4-amino-20,22-dimethyl-7-thia-3,5,10,17-tetraazatricyclo[17.3.1.1^2,6]tetracosa-1(22),2(24),3,5,19(23),20-hexaene-11,18-dione], which IC50 [1] is on record?
Its IC50 is 0.15 µM.

What about the IC50 [2] of the same compound?
The IC50 was 0.8 µM.

For Nc1nc2cc(n1)-c1cc(c(Cl)cc1Cl)C(=O)NCCCC(=O)NCCS2 [Compound 15, 4-amino-18,20-dichloro-7-thia-3,5,10,15-tetraazatricyclo[15.3.1.1^2,6]docosa-1(20),2(22),3,5,17(21),18-hexaene-11,16-dione], which IC50 [1] is on record?
Its IC50 is 0.14 µM.

What about the IC50 [2] of the same compound?
Its IC50 is 1.6 µM.

How did the IC50 [2] turn out when COc1cc(C)c2cc1C(=O)NCCCOc1cccc(c1)Sc1cc-2nc(N)n1 [Compound 16, 4-amino-20-methoxy-22-methyl-13-oxa-7-thia-3,5,17-triazatricyclo[17.3.1.1^2,6.1^8,12]pentacosa-1(22),2(24),3,5,8(25),9,11,19(23),20-nonaen-18-one] was run?
Its IC50 is 1.6 µM.

With CCOc1cc(C)c2cc1C(=O)NCCCOc1cccc(c1)Sc1cc-2nc(N)n1 [Compound 17, 4-amino-20-ethoxy-22-methyl-13-oxa-7-thia-3,5,17-triazatricyclo[17.3.1.1^2,6.1^8,12]pentacosa-1(22),2(24),3,5,8(25),9,11,19(23),20-nonaen-18-one] as the compound, how does the IC50 [2] read?
The IC50 was 1.3 µM.

With Nc1nc2cc(n1)-c1cc(c(Cl)cc1Cl)OCCCCOc1cccc(c1)S2 [Compound 21, 4-amino-20,22-dichloro-13,18-dioxa-7-thia-3,5-diazatricyclo[17.3.1.1^2,6.1^8,12]pentacosa-1(23),2,4,6(24),8,10,12(25),19,21-nonaene] as the compound, how does the IC50 [2] read?
Its IC50 is 1.8 µM.

With Nc1nc2cc(n1)-c1cc(c(Cl)cc1Cl)OCCCCCOc1cccc(c1)S2 [Compound 22, 4-amino-21,23-dichloro-13,19-dioxa-7-thia-3,5-diazatricyclo[18.3.1.1^2,6.1^8,12]hexacosa-1(24),2,4,6(24),8,10,12(26),20,22-nonaene] as the compound, how does the IC50 [1] read?
Its IC50 is 2.4 µM.

What about the IC50 [2] of the same compound?
The IC50 was 1.7 µM.

How did the IC50 [1] turn out when Nc1nc2cc(n1)-c1cc(c(Cl)cc1Cl)OCCOCCOc1cccc(c1)S2 [Compound 23, 21,23-dichloro-13,16,19-trioxa-7-thia-3,5-diazatricyclo[18.3.1.1^2,6.1^8,12]hexacosa-1(23),2(25),3,5,8(26),9,11,20(24),21-nonaen-4-ylamine] was run?
The IC50 was 1.4 µM.

What about the IC50 [2] of the same compound?
Its IC50 is 1.1 µM.

With Nc1nc2nc(n1)-c1cc(c(Cl)cc1Cl)OCCCCOc1cccc(c1)S2 [Compound 26, 20,22-dichloro-13,18-dioxa-7-thia-3,5,24-triazatricyclo[17.3.1.1^2,6.1^8,12]pentacosa-1(22),2(24),3,5,8(25),9,11,19(23),20-nonaen-4-ylamine] as the compound, how does the IC50 [1] read?
The IC50 was 7.4 µM.

What about the IC50 [2] of the same compound?
Its IC50 is 3.3 µM.

Which results are given for Nc1nc2nc(n1)-c1cc(c(Cl)cc1Cl)OCCOCCOc1cccc(c1)S2 [Compound 27, 21,23-dichloro-13,16,19-trioxa-7-thia-3,5,25-triazatricyclo[18.3.1.1^2,6.1^8,12]hexacosa-1(23),2(25),3,5,8(25),9,11,20(24),21-nonaen-4-ylamine]?
IC50 [1]: 1.4 µM; IC50 [2]: 2.1 µM

What does the source list for Nc1nc2cc(n1)-c1cc(c(Cl)cc1Cl)C(=O)NCCCCCC(=O)NCCS2 [Compound 28, 4-amino-20,22-dichloro-7-thia-3,5,10,17-tetraazatricyclo[17.3.1.1^2,6]tetracosa-1(22),2(24),3,5,19(23),20-hexaene-11,18-dione]?
IC50 [1]: 0.2 µM; IC50 [2]: 1.4 µM

For Cc1cc(C)c2cc1C(=O)NCCOCCNC(=O)CCSc1cc-2nc(N)n1 [Compound 29, 4-amino-20,22-dimethyl-14-oxa-7-thia-3,5,11,17-tetraazatricyclo[17.3.1.1^2,6]tetracosa-1(22),2(24),3,5,19(23),20-hexaene-10,18-dione], which IC50 [1] is on record?
Its IC50 is 0.3 µM.

And the IC50 [2]?
The IC50 was 1.7 µM.

What does the source list for Cc1cc(C)c2cc1C(=O)NCCN(C)CCNC(=O)CCSc1cc-2nc(N)n1 [Compound 30, 4-amino-14,20,22-trimethyl-7-thia-3,5,11,14,17-pentaazatricyclo[17.3.1.1^2,6]tetracosa-1(22),2(24),3,5,19(23),20-hexaene-10,18-dione]?
IC50 [1]: 0.5 µM; IC50 [2]: 1.8 µM

How did the IC50 [1] turn out when Cc1cc(C)c2cc1C(=O)NC[C@@H](O)CNC(=O)CCSc1cc-2nc(N)n1 [Compound 31, (S)-4-amino-13-hydroxy-18,20-dimethyl-7-thia-3,5,11,15-tetraazatricyclo[15.3.1.1^2,6]docosa-1(20),2(22),3,5,17(21),18-hexaene-10,16-dione] was run?
Its IC50 is 1.3 µM.

What about the IC50 [2] of the same compound?
The IC50 was 0.8 µM.

Cc1cc(C)c2cc1C(=O)NCCCN(C)C(=O)CCSc1cc-2nc(N)n1 [Compound 32, 4-amino-11,18,20-trimethyl-7-thia-3,5,11,15-tetraazatricyclo[15.3.1.1^2,6]docosa-1(20),2,4,6(22),17(21),18-hexaene-10,16-dione] was tested. Which IC50 [1] did it give?
Its IC50 is 0.4 µM.

What about the IC50 [2] of the same compound?
Its IC50 is 0.5 µM.

For Cc1cc(C)c2cc1C(=O)NCCCN(CCO)C(=O)CCSc1cc-2nc(N)n1 [Compound 34, 4-amino-11-(2-hydroxyethyl)-18,20-dimethyl-7-thia-3,5,11,15-tetraazatricyclo[15.3.1.1^2,6]docosa-1(20),2,4,6(22),17(21),18-hexaene-10,16-dione], which IC50 [1] is on record?
The IC50 was 1.1 µM.

And the IC50 [2]?
The IC50 was 2.8 µM.

How did the IC50 [1] turn out when Cc1cc(C)c2cc1C(=O)NCCCN(CCN1CCOCC1)C(=O)CCSc1cc-2nc(N)n1 [Compound 36, 4-amino-18,20-dimethyl-11-(2-morpholin-4-ylethyl)-7-thia-3,5,11,15-tetraazatricyclo[15.3.1.1^2,6]docosa-1(20),2,4,6(22),17(21),18-hexaene-10,16-dione] was run?
Its IC50 is 1.8 µM.

What about the IC50 [2] of the same compound?
The IC50 was 0.7 µM.
